Experimental data as given in PubChem BioAssay AID849 (SRMLSC, 2007).
Active and inactive are the calls of the source. The rule behind the calls is not given here.

Each molecule was assayed on Saccharomyces cerevisiae lifespan shortening, growth inhibition (assay: yeast lifespan shortening compounds, dose response (AID 849);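 note: yeast growth read as optical density after two days at 30 degrees C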).
For `Cc1cc(=O)[nH]c(SCc2nc3ccccc3s2)n1`, the IC50 was > 100 µM (inactive).
`Clc1ccc(CCNc2nc3ccccc3s2)cc1` was tested, and the IC50 was > 100 µM (inactive).
`Cc1cc(C(=O)COC(=O)c2ccc[nH]c2=O)c(C)n1-c1ccccc1` was tested, and the IC50 was 21.3 µM.
With `Cc1cc(C)nc(/N=c2/ssnc2Cl)c1` the IC50 was > 100 µM (inactive).
With `C=CCn1c2ccccc2c2nnc(SCN3C(=O)c4ccccc4C3=O)nc21` the IC50 was > 100 µM (inactive).
`Cn1c(=O)c2nc(-c3ccccc3)oc2c2ccccc21` was tested, and the IC50 was > 100 µM (inactive).
With `CCOC(=O)N1CCN(C(=O)Cn2nc(C)c3sc4ccccc4c3c2=O)CC1` the IC50 was > 100 µM (inactive).
For `CSC1=NSC2=NC(=O)/C(=C/c3coc4ccccc4c3=O)C(=N)N12`, the IC50 was 44.1 µM.
Molecule `CC(C)(C)n1nc(-c2ccc(F)cc2)c2c(N)ncnc21` has an IC50 of less than 0.098 µM.
Work on `Cc1cccc(Cn2ncc(Cl)c(Cl)c2=O)c1` yielded an IC50 of 37.4 µM.
With `O=C(Nc1nc(-c2ccccn2)cs1)c1ncc(Cl)c(Cl)c1Cl` the IC50 was > 100 µM (inactive).
With `Oc1c(Br)cc(Br)cc1Oc1ccc(Br)cc1Br` the IC50 was > 100 µM (inactive).
`Cn1c(-c2ccco2)nc2cc3ccccc3cc21` gave an IC50 of 39.7 µM.
For `Cc1c(Cl)cccc1N=Cc1ccc([N+](=O)[O-])s1`, the IC50 was > 100 µM (inactive).
`COc1ccc2c(c1)S/C(=C\C(=O)c1ccncc1)N2C` showed an IC50 of 5.32 µM.
In the case of `Oc1c(Br)cc(Br)cc1/C=N/c1nc2c(s1)CCCC2`, the IC50 is reported as 17.5 µM.
With `CCCCCCCCCCCCCCCC[n+]1cccc2ccccc21` the IC50 was 0.783 µM.
`COc1ccc(OC)c(-c2c3cc(O)c(=O)cc-3oc3cc(O)c(O)cc23)c1` gave an IC50 of 30.1 µM.
`O=[N+]([O-])c1ccc(N/N=C2/CCCCC2c2ccccn2)cc1` (configuration not stated) showed an IC50 of 5.86 µM.
`CCCCc1ccc(NS(=O)(=O)c2cccs2)cc1` showed an IC50 of 35.3 µM.
For `CCn1c2ccc(C)cc2c2nc3cc(C(=O)O)ccc3nc21`, the IC50 was 9.6 µM.
With `CC(C)CNC(=O)CN(C1CCCCC1)S(C)(=O)=O` the IC50 was > 100 µM (inactive).
In the case of `O=C1C2C3C=CC(CO)(O3)C2C(=O)N1c1ccccc1-c1ccccc1` (configuration not stated), the IC50 is reported as > 100 µM (inactive).
`Cc1ccc(/C(N)=N/OC(=O)c2ccc(C)cc2Cl)cc1` gave an IC50 of 14.8 µM.
With `Cc1nc(N/N=C/c2ccccn2)sc1C` the IC50 was 33.7 µM.
In the case of `CC/C(C)=N/Nc1cccc([N+](=O)[O-])c1`, the IC50 is reported as 7.6 µM.
Molecule `CCn1c(=O)c(C(=O)Nn2c(C)nc3ccccc3c2=O)c(O)c2ccccc21` has an IC50 of 15.5 µM.
`Cc1nnc(C)n1/N=C/c1cc(Br)cc(Br)c1O` was tested, and the IC50 was 9.23 µM.
In the case of `C=CCc1c(C)c(C#N)c2nc3ccccc3n2c1NCCN(C)C`, the IC50 is reported as 44.5 µM.
`N#C/C(=N/O)c1nc(-c2ccc(F)cc2)cs1` gave an IC50 of 24.9 µM.
`COc1ccccc1OCCCc1c(C)n[nH]c1C` gave an IC50 of 8.78 µM.
`CN1CSC(=S)N(C)C1` gave an IC50 of 17.3 µM.
Work on `CCCc1ccc(OCC(=O)NNC(=S)NC(=O)c2ccco2)cc1` yielded an IC50 of 15.1 µM.
Molecule `Cn1c(SCC(=O)Nc2ccccc2)nc(O)cc1=O` has an IC50 of 50.1 µM.
In the case of `CC1=NOC(=O)/C1=C/c1ccc(-c2ccc(Cl)cc2)o1`, the IC50 is reported as > 100 µM (inactive).
`CC1=CC(=O)c2ccccc2C1=O` was tested, and the IC50 was 18.5 µM.
`Cc1cccc(/C(N)=N/OC(=O)c2ccc(F)cc2)c1` was tested, and the IC50 was 23.8 µM.
`O=c1c(-c2ccc(Cl)cc2)[n+]([O-])c2ccccc2n1O` was tested, and the IC50 was 7.87 µM.
With `Oc1c(N=Nc2ccccn2)ccc2ccccc12` the IC50 was 15.5 µM.
In the case of `COc1ccc(S(=O)(=O)n2oc(=O)cc2-c2ccccc2)cc1OC`, the IC50 is reported as > 100 µM (inactive).
For `Cc1nc(Cl)c2oc3ccccc3c2n1`, the IC50 was > 100 µM (inactive).
With `COc1ccc(OCc2nnc3n2N=C(c2ccc(OC)cc2)CS3)cc1` the IC50 was > 100 µM (inactive).
In the case of `CCCc1cc(-c2n[nH]c(=S)n2C(C)c2ccccc2)cs1` (configuration not stated), the IC50 is reported as > 100 µM (inactive).
`CCCCCCCCCCCCCCCC[n+]1ccc(C(N)=O)cc1` was tested, and the IC50 was 1.1 µM.
For `COc1cccc(/C=N/N2C(=O)CSC2=S)c1O`, the IC50 was > 100 µM (inactive).
For `Cc1ccc(-c2nnc3ccc(SC(C)C(=O)O)nn23)cc1` (configuration not stated), the IC50 was > 100 µM (inactive).
In the case of `O=C(O)CCSc1nnc(-c2ccccc2)n1-c1ccccc1`, the IC50 is reported as > 100 µM (inactive).
With `O=c1cc(-c2ccncc2)oc2ccccc12` the IC50 was 51.1 µM.
With `O=C(CC(O)(C(F)(F)F)C(F)(F)F)Nc1ccc(Cl)c(Cl)c1` the IC50 was 12 µM.
For `OCc1ccnc2c(O)cccc12`, the IC50 was > 100 µM (inactive).
In the case of `Cc1ccc(/C=C/C(=O)c2ccccc(=O)c2O)c(C)c1`, the IC50 is reported as 4.42 µM.
`COc1ccc(C(=O)C(C)(C)NO)cc1` showed an IC50 of 33.7 µM.
Molecule `Oc1c(I)cc(Cl)c2cccnc12` has an IC50 of 23 µM.
`Oc1c(I)cc(I)c2cccnc12` gave an IC50 of 23.9 µM.
`COc1ccc(-c2cc(=O)n(-c3nc4ccccc4[nH]3)[nH]2)cc1` gave an IC50 of 12.5 µM.
For `Cc1ccc(N2CCOCC2)c2c1C(=O)c1ccccc1C2=O`, the IC50 was 9.55 µM.
`CCN(CC)S(=O)(=O)c1ccc(NC(=O)CSc2cccc[n+]2[O-])cc1` was tested, and the IC50 was 24.2 µM.
With `CCc1oc2ccccc2c1C(=O)c1cc(Br)c(O)c(Br)c1` the IC50 was 49.2 µM.
For `O=C1C(=C2CCCCC2)SC(=S)N1Cc1ccco1`, the IC50 was > 100 µM (inactive).
`CCCCN(CCCC)C(=S)N/N=C/c1c(C)[nH]n(-c2ccccc2)c1=O` was tested, and the IC50 was 38.9 µM.
Molecule `O=C1CSC(=S)N1c1cccnc1` has an IC50 of 31.9 µM.
`CCc1nc2ccccc2c(=O)n1NC(=O)c1c(O)c2cccc3c2n(c1=O)CCC3` was tested, and the IC50 was > 100 µM (inactive).
In the case of `O/N=C/c1cc(Cl)ccc1OCc1cccc2ccccc12`, the IC50 is reported as > 100 µM (inactive).
For `N#Cc1ccccc1NC(=O)c1ccc2c(Cl)c3c(nc2c1)CCCC3`, the IC50 was > 100 µM (inactive).
With `CNc1nnc(-c2cc3cc(Cl)ccc3oc2=O)s1` the IC50 was > 100 µM (inactive).
For `COC(=O)c1ccc(CSc2ccc3nnc(-c4cccc(F)c4)n3n2)o1`, the IC50 was > 100 µM (inactive).
Molecule `Cc1ccc(N/N=C/c2cccnc2)cc1` has an IC50 of 39.6 µM.
With `CCCn1c(CNc2ccccc2O)nc2ccccc21` the IC50 was > 100 µM (inactive).
With `O=C1NCCCC1C(=O)N/N=C/c1cccc(O)c1` (configuration not stated) the IC50 was > 100 µM (inactive).
In the case of `Cc1ccc2nc3c(nc2c1)-c1ccccc1C3=O`, the IC50 is reported as 30.3 µM.
For `CC(Sc1cccc[n+]1[O-])C(=O)Nc1cccc(S(=O)(=O)N2CCOCC2)c1` (configuration not stated), the IC50 was 6.11 µM.
`N/C(Cc1ccccc1)=N\OC(=O)c1cccc2ccccc12` was tested, and the IC50 was 10.8 µM.
Molecule `O=C1CCN2C=Nc3cccc4ccc1c2c34` has an IC50 of 32.9 µM.
In the case of `O=C(O)Cc1ccc2sc(-c3ccccc3)nc2c1`, the IC50 is reported as > 100 µM (inactive).
Work on `O=C(O)c1ccc(SCc2cnc(Cl)s2)cc1` yielded an IC50 of 7.4 µM.
In the case of `Cn1c(C(=O)N2CCC(C(=O)N3CCN(Cc4ccc5c(c4)OCO5)CC3)CC2)cc2sccc21`, the IC50 is reported as > 100 µM (inactive).
For `COc1ccc(/C=C/C(=O)c2cc(Br)ccc(=O)c2O)cc1`, the IC50 was 12.6 µM.
Molecule `CCC(=C(c1ccc(OC)cc1)c1ccc(OC)cc1)c1cn(CC(O)CN2CCN(C)CC2)c2ccccc12` (configuration not stated) has an IC50 of 36.9 µM.
`Cc1nc2ccccc2c2nc3ccccc3n12` was tested, and the IC50 was 5.3 µM.
Work on `COc1cc(C(=O)NC(=S)NNC(=O)c2cnccn2)cc(OC)c1OC` yielded an IC50 of 12.8 µM.
`Cc1ccc2nc(/C(C#N)=C\c3ccc([N+](=O)[O-])o3)[nH]c2c1` gave an IC50 of 18.9 µM.
In the case of `O=C(N/N=C1\CC2CC=CC12)c1ccc(COc2ccccc2)cc1` (configuration not stated), the IC50 is reported as > 100 µM (inactive).
For `CCN(CC)N=Nc1[nH]nc2nc(C)cc(C)c12`, the IC50 was 7.74 µM.
Molecule `O=C(OCn1ncc(Cl)c(Cl)c1=O)c1ccccc1Cl` has an IC50 of 20.7 µM.
With `Cc1ccccc1N=Cc1cccc(O)c1O` the IC50 was 10 µM.
For `COc1ccc(NCc2ccc([N+](=O)[O-])s2)c(OC)c1`, the IC50 was 41.1 µM.
`Cc1ccc(NN2C(=O)C=C(c3ccc(Cl)cc3)C2=O)cc1` showed an IC50 of 18.4 µM.
For `CCOc1ccccc1C1CC(c2ccc(Br)cc2)Nc2nc(N)nn21` (configuration not stated), the IC50 was > 100 µM (inactive).
With `c1cn2cc(-c3ccc4c(c3)OCO4)nc2s1` the IC50 was > 100 µM (inactive).
For `CCCCCCN1N=C(C)C(C(=O)c2ccc(Cl)cc2)C1=O` (configuration not stated), the IC50 was 16.4 µM.
`COc1ccc(CCNC(=O)c2cnn3c(C(F)F)cc(C)nc23)cc1OC` was tested, and the IC50 was > 100 µM (inactive).
`Clc1ccc(N/N=C/c2cccnc2)cc1` was tested, and the IC50 was > 100 µM (inactive).
In the case of `CCc1cc2c(=O)[nH]c(-c3ccccn3)nc2s1`, the IC50 is reported as 19.2 µM.
Molecule `Oc1c(CN2CCN(c3ccccn3)CC2)cc(Cl)c2cccnc12` has an IC50 of 37.2 µM.
Molecule `O=c1cc(-c2ccccc2)[nH]n1-c1nc2ccccc2[nH]1` has an IC50 of 12.2 µM.
For `O=C(O)CSc1nc(-c2ccc(Cl)cc2)nc2c1oc1ccccc12`, the IC50 was 38 µM.
For `CC(=O)Oc1ccc(N2C(=O)C3C(C2=O)C2(C)C=CC3(C)O2)cc1` (configuration not stated), the IC50 was > 100 µM (inactive).
With `CC(=O)N1N=C(c2ccc(Cl)cc2)OC1(C)C` the IC50 was > 100 µM (inactive).
`Oc1cccc2ccc(/C=C/c3cccs3)nc12` showed an IC50 of 37.5 µM.
`Cc1nn2c(-c3ccncc3)nnc2c2ccccc12` showed an IC50 of 6.35 µM.
In the case of `Oc1cccc(C=NCc2ccccc2)c1O`, the IC50 is reported as 9.17 µM.
`Cc1ccc2[nH]c3c(c2c1)CCc1cn[nH]c1-3` was tested, and the IC50 was 15.6 µM.
Molecule `CCOC(=O)c1ccc(-n2[nH]c(-c3ccccc3)cc2=O)cc1` has an IC50 of 17.1 µM.
For `Oc1cccc2ccc(Nc3ccccn3)nc12`, the IC50 was 14 µM.
`Cn1c(N2CCOCC2)c(/C=N/OC(=O)c2ccc(F)cc2)c2ccccc21` showed an IC50 of 42.2 µM.
In the case of `COc1cccc(CC(=O)Nc2ccc3nc(C)sc3c2)c1`, the IC50 is reported as 35 µM.
Molecule `CCN(CC)c1ccc(S(=O)(=O)N2CCOCC2)cc1NC(=O)CSc1cccc[n+]1[O-]` has an IC50 of 16.7 µM.
With `N/C(Cc1ccc(Cl)cc1Cl)=N\OC(=O)c1cccs1` the IC50 was 0.78 µM.
Work on `Cc1cc(=O)[nH]c(-n2nc(C)cc2C)n1` yielded an IC50 of 14.3 µM.
`CCOC(=O)CNC(=O)CSc1nnc(-c2ccco2)n1Cc1ccco1` was tested, and the IC50 was > 100 µM (inactive).
With `CC(C)Sc1nc(N)nc(-c2cccs2)c1C#N` the IC50 was > 100 µM (inactive).
Molecule `CCCCCCOC(=O)Sc1nc2ccccc2o1` has an IC50 of 20.2 µM.
For `CC(=O)c1c(C)oc2c1C(=O)c1ccccc1C2=O`, the IC50 was > 100 µM (inactive).
In the case of `O=c1c2sc(-c3ccccc3)cc2nc2n1CCC2`, the IC50 is reported as 13.8 µM.
Molecule `Cc1ccc(-c2nn(C(C)(C)C)c3ncnc(N)c23)cc1` has an IC50 of 1.72 µM.
With `CCCc1cc(C(=O)Cc2ccc(F)cc2)c(O)cc1O` the IC50 was 48.3 µM.
Molecule `CCCCOc1ccc(C(=O)NNC(=S)NC(=O)CC)cc1` has an IC50 of 41.5 µM.
With `CCc1ccc2c(c1)C1(NN=C(c3ccc(C)cc3)S1)C(=O)N2` (configuration not stated) the IC50 was 23.8 µM.
`O=C1C(=O)c2ccccc2-c2ccccc21` showed an IC50 of 7.79 µM.
`CCC(C)NC(=O)CS(=O)Cc1nc(-c2ccccc2C)oc1C` (configuration not stated) was tested, and the IC50 was > 100 µM (inactive).
`Cc1ccc(Nc2cc(C)nn2-c2nc(C)cc(=O)[nH]2)cc1` gave an IC50 of 1.18 µM.
Molecule `CC1(C)C(C=C(Cl)Cl)C1C(=O)Nc1ccc([N+](=O)[O-])cc1` (configuration not stated) has an IC50 of 51.3 µM.
